Laboratory results taken from ChEMBL document CHEMBL1201862, “PubChem BioAssay data set” (2004).
Active and inactive are the calls of the source.

Columns and labels:
[1] = reduction of Shn3 3'UTR-driven luciferase in osteoblasts – cell-based, Clone20 osteoblasts, firefly luciferase, cherry-picked, dose response (AID 624132); format: functional;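 also: firefly luciferase luminescence from reporter carrying the Shn3 3'UTR in osteoblasts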
[2] = loss of viability in HepG2 cells – cell-based, CellTiter-Glo, cherry-picked, cytotoxicity control for Shn3 inhibitor project, dose response (AID 624134); format: functional
[3] = non-specific 3'UTR reporter inhibition in Clone20-Shn3RL – cell-based, Renilla luciferase, cherry-picked, counter-screen for Shn3 inhibitor project, dose response (AID 624133); format: functional
[4] = NIH-3T3 fibroblast cytotoxicity, dose response, cytotoxicity control, cell-based, fluorescence, Alamar Blue, secondary assay (AID 2327); format: functional;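 also: NIH-3T3 mouse fibroblasts cultured with fluconazole at 8 µg/mL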
[5] = fluconazole-exposed Candida albicans growth modulators – fluorescence, retest, confirmation (AID 2467); format: functional, cell-based
[6] = test system: Vero; assay: cells; format: functional; settings: Chlorocebus sabaeus
[7] = biological target: T1, Caspase-3 (Homo sapiens, UniProt P42574); format: functional;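 also: Dose-response selectivity test against caspase-3 for candidate inhibitors of sentrin-specific proteases (SENPs)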
T1 sequence (P42574 whole entry): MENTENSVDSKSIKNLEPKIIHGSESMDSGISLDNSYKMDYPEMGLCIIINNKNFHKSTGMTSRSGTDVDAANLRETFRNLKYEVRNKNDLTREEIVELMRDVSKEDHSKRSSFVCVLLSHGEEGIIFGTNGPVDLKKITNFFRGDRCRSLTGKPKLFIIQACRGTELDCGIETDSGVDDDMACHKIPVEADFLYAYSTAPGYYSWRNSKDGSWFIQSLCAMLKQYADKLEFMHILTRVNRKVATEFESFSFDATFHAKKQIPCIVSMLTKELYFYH

[8] = biological target: T2, Sentrin-specific protease 7 (Homo sapiens, UniProt Q9BQF6); format: functional;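 also: Luminescence-based dose-response confirmation of ultra-high-throughput screening hits, measuring inhibition of SENP7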
T2 sequence (Q9BQF6 whole entry): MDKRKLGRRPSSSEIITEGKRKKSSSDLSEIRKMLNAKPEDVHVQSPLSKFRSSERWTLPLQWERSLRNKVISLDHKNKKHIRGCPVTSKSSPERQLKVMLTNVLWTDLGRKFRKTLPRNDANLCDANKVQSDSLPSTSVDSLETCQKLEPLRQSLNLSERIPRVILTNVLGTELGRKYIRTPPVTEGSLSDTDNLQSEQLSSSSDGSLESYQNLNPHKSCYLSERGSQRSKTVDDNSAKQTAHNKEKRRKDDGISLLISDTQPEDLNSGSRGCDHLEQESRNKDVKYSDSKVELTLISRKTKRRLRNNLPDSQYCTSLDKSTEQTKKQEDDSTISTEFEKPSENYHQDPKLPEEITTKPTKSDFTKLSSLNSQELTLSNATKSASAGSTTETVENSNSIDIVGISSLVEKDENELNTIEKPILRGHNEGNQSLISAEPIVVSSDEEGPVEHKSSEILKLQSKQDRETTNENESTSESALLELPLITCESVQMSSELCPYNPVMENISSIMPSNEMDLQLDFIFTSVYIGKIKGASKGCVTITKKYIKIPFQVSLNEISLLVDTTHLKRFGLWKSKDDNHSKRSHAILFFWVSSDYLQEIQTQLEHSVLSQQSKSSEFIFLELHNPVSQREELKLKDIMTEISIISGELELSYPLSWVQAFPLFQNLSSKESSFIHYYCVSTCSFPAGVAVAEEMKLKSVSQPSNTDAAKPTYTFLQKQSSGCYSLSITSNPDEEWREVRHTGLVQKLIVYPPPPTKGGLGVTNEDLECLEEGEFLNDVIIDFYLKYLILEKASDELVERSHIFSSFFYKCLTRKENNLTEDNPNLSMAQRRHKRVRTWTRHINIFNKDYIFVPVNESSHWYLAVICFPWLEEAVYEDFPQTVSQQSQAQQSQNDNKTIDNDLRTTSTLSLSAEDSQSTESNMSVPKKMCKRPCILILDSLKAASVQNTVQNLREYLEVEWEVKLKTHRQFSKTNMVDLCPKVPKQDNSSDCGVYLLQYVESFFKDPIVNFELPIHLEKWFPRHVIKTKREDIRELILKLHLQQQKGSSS

[9] = biological target: T3, Sentrin-specific protease 6 (Homo sapiens, UniProt Q9GZR1); format: functional;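 also: Luminescence-based dose-response confirmatory assay of SENP6 inhibition, following up an ultra-high-throughput screen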
T3 sequence (Q9GZR1 whole entry): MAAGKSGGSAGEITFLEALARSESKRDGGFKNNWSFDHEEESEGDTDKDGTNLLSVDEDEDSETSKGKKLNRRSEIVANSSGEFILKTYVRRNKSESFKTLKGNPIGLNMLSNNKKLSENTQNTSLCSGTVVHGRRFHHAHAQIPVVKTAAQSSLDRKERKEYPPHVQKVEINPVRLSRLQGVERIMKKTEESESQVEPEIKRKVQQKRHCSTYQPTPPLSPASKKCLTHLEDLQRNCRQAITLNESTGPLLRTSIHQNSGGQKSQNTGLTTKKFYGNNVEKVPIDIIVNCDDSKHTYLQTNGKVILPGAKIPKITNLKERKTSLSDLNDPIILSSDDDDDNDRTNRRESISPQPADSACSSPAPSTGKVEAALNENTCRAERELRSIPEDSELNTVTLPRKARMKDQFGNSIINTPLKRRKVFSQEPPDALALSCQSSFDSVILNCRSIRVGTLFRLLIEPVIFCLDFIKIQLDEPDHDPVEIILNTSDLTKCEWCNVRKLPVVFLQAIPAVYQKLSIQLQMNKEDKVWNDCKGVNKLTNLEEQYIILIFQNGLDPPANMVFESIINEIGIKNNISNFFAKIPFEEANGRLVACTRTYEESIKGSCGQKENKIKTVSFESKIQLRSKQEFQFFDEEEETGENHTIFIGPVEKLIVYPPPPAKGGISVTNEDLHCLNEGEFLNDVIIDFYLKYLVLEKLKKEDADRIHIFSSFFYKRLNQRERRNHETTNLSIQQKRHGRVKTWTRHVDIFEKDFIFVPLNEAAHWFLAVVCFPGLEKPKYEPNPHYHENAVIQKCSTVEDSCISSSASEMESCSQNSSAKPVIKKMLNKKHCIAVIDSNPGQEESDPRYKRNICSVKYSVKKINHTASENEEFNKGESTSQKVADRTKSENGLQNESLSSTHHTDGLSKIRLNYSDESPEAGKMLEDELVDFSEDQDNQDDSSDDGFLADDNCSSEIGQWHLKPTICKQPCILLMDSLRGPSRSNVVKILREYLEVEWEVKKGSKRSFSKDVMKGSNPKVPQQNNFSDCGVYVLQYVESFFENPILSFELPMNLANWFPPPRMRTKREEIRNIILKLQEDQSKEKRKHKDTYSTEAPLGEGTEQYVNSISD

[10] = biological target: T4, Sentrin-specific protease 8 (Homo sapiens, UniProt Q96LD8); format: functional;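 also: luminescence read-out of SENP8 inhibition, dose-response confirmation following an ultra-high-throughput screen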
T4 sequence (Q96LD8 whole entry): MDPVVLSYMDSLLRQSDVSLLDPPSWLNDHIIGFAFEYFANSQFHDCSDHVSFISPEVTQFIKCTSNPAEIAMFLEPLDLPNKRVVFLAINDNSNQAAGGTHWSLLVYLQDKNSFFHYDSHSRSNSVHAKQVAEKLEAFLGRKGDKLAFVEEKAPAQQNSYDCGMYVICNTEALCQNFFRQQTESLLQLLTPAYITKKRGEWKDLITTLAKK

[11] = HEK-293T viability loss after treatment – luminescence, T-cell screen hits, cytotoxicity control for TCR NF-kB inhibitor project, dose response (AID 489026); format: functional, cell-based;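 also: cells exposed to compound about 14 hours before the viability readout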
[12] = luciferase reporter signal suppression in cells – H4 neuroglioma cells, luminescence, dose response (AID 1990); format: functional, cell-based
[13] = test system: Streptococcus sp. 'group A'; assay: Streptococcus pyogenes SK(-)GAS viability under kanamycin – luminescence, BacTiterGlo, confirmation, counter-screen for streptokinase expression inhibitor project, dose response (AID 1900); format: functional, organism-based
[14] = Luminescence Cell-Based Dose Response HTS to Identify Inhibitors of 5'UTR Stem-Loop Driven Prion Protein mRNA Translation in H4 Neuroglioblastoma Cells. [Related pubchem assays: 1827 (Project Summary), 1813 (Primary HTS)]; format: functional
[15] = alpha-synuclein stem-loop luciferase translation blockers – H4 neuroglioma cells, luminescence, confirmation (AID 1988); format: functional, cell-based
[16] = biological target: T5, Streptokinase A (Streptococcus pyogenes serotype M1, UniProt P10520); assay: viability-normalized secreted streptokinase activity reduction – plasminogen activation absorbance, OD405, dose response (AID 1914); format: functional, Streptococcus pyogenes M1 GAS;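 also: secreted streptokinase activity via plasminogen activation per viability signal from cell pellet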
T5 sequence (P10520 whole entry): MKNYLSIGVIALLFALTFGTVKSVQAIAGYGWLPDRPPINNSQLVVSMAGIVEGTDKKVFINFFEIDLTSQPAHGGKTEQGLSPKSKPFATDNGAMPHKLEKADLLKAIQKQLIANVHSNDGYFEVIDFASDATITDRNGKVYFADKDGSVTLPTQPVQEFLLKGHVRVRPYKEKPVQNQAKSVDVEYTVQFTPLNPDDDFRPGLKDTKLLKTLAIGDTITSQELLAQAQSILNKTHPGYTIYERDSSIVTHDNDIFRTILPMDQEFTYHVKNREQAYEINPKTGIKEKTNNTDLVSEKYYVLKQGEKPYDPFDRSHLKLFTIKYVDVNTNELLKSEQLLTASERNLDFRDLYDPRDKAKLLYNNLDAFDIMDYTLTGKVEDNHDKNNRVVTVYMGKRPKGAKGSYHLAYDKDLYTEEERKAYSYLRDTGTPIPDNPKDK

[17] = test system: Streptococcus; assay: GAS UMAA2166 growth inhibition – luminescence, BacTiterGlo, counter-screen for streptokinase expression inhibitor project, dose response (AID 1915); format: functional, organism-based;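 also: potency for reduction of bacterial viability or growth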
[18] = biological target: Cytochrome P450 2C19 (Homo sapiens, UniProt P33261); assay: Cytochrome panel assay with activity outcomes. Panel member name: p450-cyp2c19 Compounds with AC50 equal or less than 10 uM are considered active; format: functional; settings: read-out: AC50
[19] = biological target: Cytochrome P450 2C9 (Homo sapiens, UniProt P11712)
Sequence of Cytochrome P450 2C9 (P11712 whole entry): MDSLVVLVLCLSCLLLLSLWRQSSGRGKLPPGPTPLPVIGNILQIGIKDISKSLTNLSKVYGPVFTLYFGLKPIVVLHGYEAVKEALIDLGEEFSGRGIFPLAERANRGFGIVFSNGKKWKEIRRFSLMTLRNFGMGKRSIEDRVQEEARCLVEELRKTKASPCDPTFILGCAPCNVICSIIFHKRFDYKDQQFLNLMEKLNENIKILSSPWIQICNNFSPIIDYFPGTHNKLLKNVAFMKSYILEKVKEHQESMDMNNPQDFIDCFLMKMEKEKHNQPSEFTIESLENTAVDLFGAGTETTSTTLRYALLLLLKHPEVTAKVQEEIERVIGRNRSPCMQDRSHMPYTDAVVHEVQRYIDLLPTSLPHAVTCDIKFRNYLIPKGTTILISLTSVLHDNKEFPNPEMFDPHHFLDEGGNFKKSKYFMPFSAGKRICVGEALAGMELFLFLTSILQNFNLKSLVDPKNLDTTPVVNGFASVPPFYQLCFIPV

Sequence of Cytochrome P450 2C19 (P33261 whole entry): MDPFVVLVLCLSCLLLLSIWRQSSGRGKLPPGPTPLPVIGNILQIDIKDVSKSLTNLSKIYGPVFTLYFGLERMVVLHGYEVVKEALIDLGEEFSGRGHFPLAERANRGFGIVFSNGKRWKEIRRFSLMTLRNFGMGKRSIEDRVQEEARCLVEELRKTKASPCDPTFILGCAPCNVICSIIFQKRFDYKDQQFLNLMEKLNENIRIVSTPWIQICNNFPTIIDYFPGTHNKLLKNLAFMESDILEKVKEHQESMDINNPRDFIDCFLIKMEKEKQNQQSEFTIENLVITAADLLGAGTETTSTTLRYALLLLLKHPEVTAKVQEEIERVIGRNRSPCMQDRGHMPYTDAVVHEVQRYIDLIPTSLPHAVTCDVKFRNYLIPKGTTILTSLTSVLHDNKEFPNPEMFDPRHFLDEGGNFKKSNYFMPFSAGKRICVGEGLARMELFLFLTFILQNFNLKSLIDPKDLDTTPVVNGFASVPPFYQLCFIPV

In the case of `CCc1c(C)nc2ncnn2c1NCCc1ccc(Cl)cc1`, the AC50 [1] is reported as 2.17 µM (active), the AC50 [2] is reported as 60.2 µM (active) and the AC50 [3] is reported as 3.82 µM (active).

In the case of `O=c1c2ccccc2nc(-c2ccc(Cl)cc2Cl)n1O`, the EC50 [4] is reported as > 160 µM (inactive) and the EC50 [5] is reported as 2.06 µM (active).

For `O=C(NC1C2CC3CC(C2)CC1C3)c1ccc(N2CCNCC2)c([N+](=O)[O-])c1` (stereo not given), the CC50 [6] was > 25 µM (active).

With `COc1cccc(/C=C2\CCC(C3CCCC3)C2=O)c1` (stereo not given) the IC50 [7] was 27.3 µM (active), the IC50 [8] was 11.8 µM (active) and the IC50 [9] was 25.5 µM (active). The IC50 [10] was 33.4 µM (active).

With `COc1ccc([C@H]2CC(=O)C=C(c3c(OC)cccc3OC)C2)cc1` the IC50 [11] was > 80 µM (inactive).

In the case of `CC(=O)Nc1ccc(C#Cc2ccc(NC(C)=O)cc2)cc1`, the EC50 [12] is reported as 16.5 µM (active), the EC50 [13] is reported as 0.953 µM (active) and the EC50 [14] is reported as 10.5 µM (active). The EC50 [15] was 8.38 µM (active), the EC50 [16] was > 150 µM (not active) and the EC50 [17] was 9.38 µM (active). For the same compound, the AC50 [18] was 0.00631 µM (inconclusive) and the AC50 [19] was “inconclusive”.

For `CN(Cc1ccco1)c1cc(-c2cccc(C#N)c2)ncn1`, the AC50 [19] was “inconclusive”.

In the case of `COc1cccc(OC)c1C1=NCC(=O)Nc2c1oc1ccc(Br)cc21`, the EC50 [12] is reported as 0.752 µM (active), the EC50 [14] is reported as 0.566 µM (active) and the EC50 [15] is reported as 0.267 µM (active). For the same compound, the IC50 [11] was 71.8 µM (inactive).

For `CCOc1ccccc1C1CC(=O)Nc2cc3c(cc21)OCO3` (stereo not given), the IC50 [11] was > 80 µM (inactive).

In the case of `CCc1ccccc1NC(=O)c1ccc(-n2c(C)ccc2C)cc1`, the AC50 [19] is reported as “inconclusive”.

For `O=c1c2ccccc2nnn1COc1cccc(Cl)c1`, the IC50 [7] was 16.1 µM (active), the IC50 [8] was 6.41 µM (active) and the IC50 [9] was 34 µM (active). The IC50 [10] was 6.62 µM (active).
